Test results reported in ChEMBL document CHEMBL4364351, “PROTAC Degradation of Bromodomain for the Treatment of Hyperplasia and Cancer” (ACS Med Chem Lett, 2019).
One block for each compound: values may come before it.

Key:
Assay type in all cases: cell-based
[1] = target: Protein cereblon/Serine/threonine-protein kinase TBK1 (Homo sapiens) (UniProt Q9UHD2+Q96SW2); assay: Protac activity at CRBN/TBK1 in human Panc02.13 cells assessed as TBK1 degradation at 0.1 to 1 uM after 16 hrs by Western blot analysis relative to control
Chain of Protein cereblon/Serine/threonine-protein kinase TBK1 (Homo sapiens) (Q96SW2 whole entry, looked up): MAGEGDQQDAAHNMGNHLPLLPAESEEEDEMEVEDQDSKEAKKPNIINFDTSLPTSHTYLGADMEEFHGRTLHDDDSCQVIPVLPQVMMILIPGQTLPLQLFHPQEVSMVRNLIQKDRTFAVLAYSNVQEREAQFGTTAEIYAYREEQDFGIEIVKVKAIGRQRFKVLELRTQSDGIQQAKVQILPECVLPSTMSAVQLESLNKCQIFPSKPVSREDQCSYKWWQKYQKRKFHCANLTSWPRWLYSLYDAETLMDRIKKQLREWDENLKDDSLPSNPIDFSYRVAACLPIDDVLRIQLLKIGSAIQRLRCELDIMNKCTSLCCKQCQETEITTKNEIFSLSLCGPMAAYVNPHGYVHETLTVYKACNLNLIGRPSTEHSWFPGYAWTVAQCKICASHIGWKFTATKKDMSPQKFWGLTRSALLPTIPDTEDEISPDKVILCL
Chain of Protein cereblon/Serine/threonine-protein kinase TBK1 (Homo sapiens) (Q9UHD2 whole entry, looked up): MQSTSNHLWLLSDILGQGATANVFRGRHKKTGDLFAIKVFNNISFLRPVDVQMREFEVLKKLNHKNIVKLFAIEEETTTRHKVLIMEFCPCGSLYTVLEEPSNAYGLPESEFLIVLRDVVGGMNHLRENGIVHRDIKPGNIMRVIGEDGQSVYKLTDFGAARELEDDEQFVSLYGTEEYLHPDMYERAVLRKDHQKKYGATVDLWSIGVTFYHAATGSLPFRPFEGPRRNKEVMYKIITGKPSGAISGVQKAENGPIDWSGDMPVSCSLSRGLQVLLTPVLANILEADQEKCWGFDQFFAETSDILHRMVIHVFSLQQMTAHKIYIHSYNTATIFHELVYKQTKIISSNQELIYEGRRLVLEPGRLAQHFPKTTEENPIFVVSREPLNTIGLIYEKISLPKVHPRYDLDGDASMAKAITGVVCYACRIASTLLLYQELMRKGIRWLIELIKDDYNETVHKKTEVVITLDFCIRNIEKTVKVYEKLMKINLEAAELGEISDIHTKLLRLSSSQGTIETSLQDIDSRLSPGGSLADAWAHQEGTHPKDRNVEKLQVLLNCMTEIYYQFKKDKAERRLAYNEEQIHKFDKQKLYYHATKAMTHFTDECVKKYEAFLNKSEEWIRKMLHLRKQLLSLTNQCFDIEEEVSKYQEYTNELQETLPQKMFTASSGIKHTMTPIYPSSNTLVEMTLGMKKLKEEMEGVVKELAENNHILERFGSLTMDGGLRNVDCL

[2] = target: Protein cereblon/Bromodomain-containing protein 4 (Homo sapiens, UniProt O60885+Q96SW2); assay: Protac activity at CRBN/BRD4 in human 22Rv1 cells assessed as c-MYC degradation after 18 hrs by ELISA
Chain of Protein cereblon/Bromodomain-containing protein 4 (Q96SW2 whole entry, looked up, other chains not shown): as the sequence (Q96SW2 whole entry, looked up) above

[3] = target: Protein cereblon/Androgen receptor (Homo sapiens) (UniProt P10275+Q96SW2); assay: Protac activity at CRBN/AR in human VCaP cells assessed as AR degradation at 0.0001 to 1 uM after 16 hrs by sandwich ELISA relative to control
Chain of Protein cereblon/Androgen receptor (Homo sapiens) (P10275 whole entry, looked up): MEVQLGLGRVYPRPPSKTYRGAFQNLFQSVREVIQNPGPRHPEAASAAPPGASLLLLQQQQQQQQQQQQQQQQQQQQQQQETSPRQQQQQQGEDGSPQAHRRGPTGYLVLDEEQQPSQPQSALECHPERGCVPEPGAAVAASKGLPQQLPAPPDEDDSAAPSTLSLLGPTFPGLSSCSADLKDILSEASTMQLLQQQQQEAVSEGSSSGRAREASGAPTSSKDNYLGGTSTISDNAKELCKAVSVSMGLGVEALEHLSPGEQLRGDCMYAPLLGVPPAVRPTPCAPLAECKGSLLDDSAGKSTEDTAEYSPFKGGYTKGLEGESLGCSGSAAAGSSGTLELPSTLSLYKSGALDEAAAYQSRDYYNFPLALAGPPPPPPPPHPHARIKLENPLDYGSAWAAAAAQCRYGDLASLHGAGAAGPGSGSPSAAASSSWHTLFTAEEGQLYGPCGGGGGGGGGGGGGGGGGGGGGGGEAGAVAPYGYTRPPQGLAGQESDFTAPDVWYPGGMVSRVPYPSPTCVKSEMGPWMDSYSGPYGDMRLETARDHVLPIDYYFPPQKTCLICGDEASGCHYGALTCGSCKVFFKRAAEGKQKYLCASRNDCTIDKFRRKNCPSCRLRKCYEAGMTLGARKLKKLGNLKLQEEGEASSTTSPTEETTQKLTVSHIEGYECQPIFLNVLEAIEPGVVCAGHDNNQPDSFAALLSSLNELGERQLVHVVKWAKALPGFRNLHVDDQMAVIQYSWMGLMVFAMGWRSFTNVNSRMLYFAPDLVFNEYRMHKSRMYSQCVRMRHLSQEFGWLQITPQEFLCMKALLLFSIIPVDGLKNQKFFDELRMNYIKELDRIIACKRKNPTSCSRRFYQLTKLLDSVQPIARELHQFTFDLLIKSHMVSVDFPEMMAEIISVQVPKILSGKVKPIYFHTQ
Chain of Protein cereblon/Androgen receptor (Homo sapiens) (Q96SW2 whole entry, looked up): as the sequence (Q96SW2 whole entry, looked up) above

[4] = target: Protein cereblon/Steroid hormone receptor ERR1 (Homo sapiens) (UniProt P11474+Q96SW2); assay: Protac activity at CRBN/ERRalpha in human NAMALWA cells assessed as ERRalpha degradation at 0.1 to 1 uM after 16 hrs by Western blot analysis relative to control
Chain of Protein cereblon/Steroid hormone receptor ERR1 (Homo sapiens) (P11474 whole entry, looked up): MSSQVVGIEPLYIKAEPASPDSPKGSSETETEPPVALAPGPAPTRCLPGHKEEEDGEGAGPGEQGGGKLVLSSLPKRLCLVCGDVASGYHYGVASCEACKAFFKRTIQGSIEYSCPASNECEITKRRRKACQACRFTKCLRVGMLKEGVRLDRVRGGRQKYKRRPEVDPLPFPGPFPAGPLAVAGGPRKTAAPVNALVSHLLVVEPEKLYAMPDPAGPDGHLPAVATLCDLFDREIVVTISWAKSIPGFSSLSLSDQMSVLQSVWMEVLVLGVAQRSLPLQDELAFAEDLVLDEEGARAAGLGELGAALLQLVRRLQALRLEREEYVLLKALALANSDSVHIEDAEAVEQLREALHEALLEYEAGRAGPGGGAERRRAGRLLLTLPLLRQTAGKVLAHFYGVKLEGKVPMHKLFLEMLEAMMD
Chain of Protein cereblon/Steroid hormone receptor ERR1 (Homo sapiens) (Q96SW2 whole entry, looked up): as the sequence (Q96SW2 whole entry, looked up) above

IC50 [2]: < 50 nM
Structure (SMILES): Cc1sc2c(c1C)C(c1ccc(Cl)cc1)=NC(CC(=O)N[C@@H](C)c1ccc(OCCOCCNc3cccc4c3C(=O)N(C3CCC(=O)NC3=O)C4=O)cc1)c1nnc(C)n1-2 (some centres not stated)

Activity [4]: > 50%
Structure (SMILES): COc1cc(/C=C2\SC(=O)N(CCCOCCNc3cccc4c3C(=O)N(C3CCC(=O)NC3=O)C4=O)C2=O)ccc1Oc1ccc(C#N)cc1C(F)(F)F (configuration not stated)

Activity [3]: > 50%
Structure (SMILES): CC1(C)C(=O)N(c2ccc(C#N)c(C(F)(F)F)c2)C(=S)N1c1ccc(-c2ccc(OCCCCCNc3cccc4c3C(=O)N(C3CCC(=O)NC3=O)C4=O)cc2)cc1 (configuration not stated)

Activity [1]: > 50%
Structure (SMILES): CN(CCCNc1nc(Nc2ccc(OCCOCCOCCOCCOCCOCCNc3cccc4c3C(=O)N(C3CCC(=O)NC3=O)C4=O)cc2)ncc1Br)C(=O)C1CCC1 (configuration not stated)

Second part, the compound before the results:

Structure (SMILES): CN(CCCNc1nc(Nc2ccc(OCCOCCOCCOCCOCCNc3cccc4c3C(=O)N(C3CCC(=O)NC3=O)C4=O)cc2)ncc1Br)C(=O)C1CCC1 (configuration not stated)
Activity [1]: > 50%

Structure (SMILES): CC1(C)[C@H](NC(=O)c2ccc(OCCCCCOCCCNc3cccc4c3C(=O)N(C3CCC(=O)NC3=O)C4=O)cc2)C(C)(C)[C@H]1Oc1ccc(C#N)c(Cl)c1 (some centres not stated)
Activity [3]: > 50%

Structure (SMILES): Cc1sc2c(c1C)C(c1ccc(Cl)cc1)=NC(CC(=O)NCCOCCNc1cccc3c1C(=O)N(C1CCC(=O)NC1=O)C3=O)c1nnc(C)n1-2 (configuration not stated)
IC50 [2]: < 50 nM
